Results as given in ChEMBL document CHEMBL3507680, “University of Dundee, Gates Library screen for HepG2 cell viability”.

assay: Human HepG2 cell viability assay in 384 well format; assay type: toxicity, cell-based; parameters: dose 125 nL, time 70.5 hour; concentration not given beside the values; conditions: HepG2 cells, read-out: Inhibition

Compound	cytotoxicity at 70.5 h
Cc1noc([C@H]2C[C@H]3CN(C(=O)C4CCOCC4)CC[C@@H]3O2)n1	-12.9%
CCN(C(=O)COc1nc(C(C)(C)C)no1)C1CC1	-2.91%
Cc1ccsc1C(=O)NCC1COCc2c(C)nnn2C1 (stereo not drawn)	-1.54%
CC(NC(=O)CSCC#N)c1ccc(F)cc1 (stereo not drawn)	10.1%
Cn1nc(C2CCCN(Cc3ccc(F)c(F)c3)C2)c2nccnc21 (stereo not drawn)	27.1%
CNC(=O)[C@@]12CCO[C@@H]1CCN(Cc1scnc1C)C2	4.42%
O=C(CSc1ccc2c(c1)OCCO2)NS(=O)(=O)c1cccs1	-6.92%
Cc1cnn(CC2CCCCN2C(=O)c2cccc3c2OCO3)c1 (stereo not drawn)	-8.6%
CCCc1cc(=O)n(CC(=O)NCCOC)c(-n2nc(C)cc2C)n1	-0.382%
OCCC1CN(c2ncnc3[nH]cnc23)CCN1Cc1ccccc1 (stereo not drawn)	-3.48%
O=C1COc2cc(S(=O)(=O)NCCC3=CCCCC3)c(Cl)cc2N1	14.7%
Cc1cnn(CC2CCCN2C(=O)c2cc3c(F)cccc3[nH]2)c1 (stereo not drawn)	6.2%
Fc1ccc(-c2nnc(CN3CCCC(Cn4cncn4)C3)o2)cc1 (stereo not drawn)	-5.49%
CC(c1nc(C2CC2)no1)N1CCN(Cc2ccc(C#N)cc2)CC1 (stereo not drawn)	5.31%
COc1cccn(CC(=O)N2CCC3(CCNCC3)C2)c1=O	-13.1%
CN(C)C(=O)CN1CCC2(CCN(C(=O)N(C)C)CC2)C1=O	17%
Cn1nc(COc2cccnc2)c2c1CCN(c1cnccn1)C2	-14.9%
Cc1nc(CNCc2ccc(OC34CCCN(CC3)C4)cc2)n[nH]1 (stereo not drawn)	-5.4%
Cn1ccnc(Sc2ccc(O)cc2)c1=O	-14.3%
CN1CCO[C@@H]2CN(C(=O)COc3cccc(Cl)c3)C[C@@H]2C1	4.28%
O=C(O)C1CCCCN1C(=O)c1cccc(C(F)(F)F)c1 (stereo not drawn)	-9.81%
Cc1cc(C(F)(F)F)nn1CCCNC(=O)C1CCN(S(C)(=O)=O)CC1	-10.7%
CCN(Cc1ccco1)C(=O)c1cc(OC)c2c(c1)OCCO2	5.2%

Compound	cytotoxicity at 70.5 h
COc1ccc(CN2CCC3(CC(=O)N(c4cncnc4)C3)C2)cc1 (stereo not drawn)	-15.2%
CNS(=O)(=O)CC(=O)N(Cc1ccccc1)c1ccc(C)cc1	-5.84%
CC(=O)N1C[C@@H]2CC[C@H](C1)N(Cc1ccc(Cn3cccn3)cc1)C2	-19.2%
COc1ccccc1Oc1ncccc1CNC(=O)[C@H](N)CC(C)(C)C	-5.62%
CN(Cc1ccoc1)C(=O)C1CC(=O)N(Cc2ccncc2)C1 (stereo not drawn)	-8.62%
O=C(CCc1ccc(Cl)cc1)N[C@@H]1CC[C@@H](O)[C@@H]1O	-6.03%
Cc1cc(C(=O)CN2CCN(c3ncccn3)CC2)c(C)n1C(C)C	12.3%
O=S(=O)(C1CC1)N1CC[C@]2(C[C@H](OCC3CCOCC3)CO2)C1	-9.21%
CC(C)c1cc(N[C@@H](CO)C(N)=O)n2nccc2n1	31.2%
N[C@@H]1CC[C@H](C(=O)NCCn2cc(Cl)cn2)C1	3.97%
CCn1nnnc1-c1cccc(NC(=O)CCc2cnn(C)c2)c1	-2.12%
CC(c1cccc(Cl)c1)N(C)Cc1nc2c(cnn2C)c(=O)[nH]1 (stereo not drawn)	-1.63%
N#Cc1ccc(CN2CCCC(Cn3cncn3)C2)c(F)c1 (stereo not drawn)	8.28%
COc1ccccc1C(=O)N(C)Cc1nnc2ccccn12	-14%
COCCN1C[C@H]2CN(C(=O)NCc3ccccc3)CCN2C1=O	-8.58%
Cc1nnc(NCc2ccc(F)cc2)o1	-2.93%
CCN(CC)S(=O)(=O)N(C)Cc1ccc2c(c1)OCCO2	-2.26%
CS(=O)(=O)N1C[C@H]2N(c3ncccn3)CCC[C@@]2(C(=O)NCC2CC2)C1	-7.17%
CC(C)NC(=O)CC(C)NCc1ccc(F)cc1Cl (stereo not drawn)	-3.7%
CC(C)COC(=O)N1CC(=O)N(CCc2ccccc2)CC(O)C1 (stereo not drawn)	25.4%
CO[C@H]1CN(C(C)C)C[C@@H]1NC(=O)Nc1ccc2oc(C)cc2c1	26.1%
CC(C)(C)Nc1c(C2CCN(C(=O)C(C)(C)C)CC2)nc2ccccn12	-4.87%
O=C(NCc1nncn1C1CC1)Nc1ccc(OC2CCC2)c(F)c1	-1.51%

Compound	cytotoxicity at 70.5 h
CCc1nc(C)c([C@H]2CN(C)C[C@@H]2C(=O)Nc2ccccc2F)[nH]1	-13.9%
COc1cc2nc(C)sc2cc1NC(=O)CN(C)C(C)C	4.08%
NC(=O)c1cccc2nc([C@H]3CCN(Cc4ccccn4)C3)[nH]c12	-0.598%
COc1ccc(CN2C[C@@H]3OCCN(c4ncccn4)[C@@H]3C2)cc1	-7.28%
CN1CCN(S(=O)(=O)c2cncc(F)c2)c2ccccc2C1	-11.8%
O=C(C1CCCC1)N1CCO[C@@H]2CNC[C@@H]21	12.2%
Cc1csc(CNC(=O)NCC(O)c2ccccc2)n1 (stereo not drawn)	-4.81%
Cc1cc(C)c2nc(CN3C[C@H](CCO)[C@@H](N)C3)cc(O)c2c1	-4.09%
c1ccc(CO[C@@H]2CN(Cc3nccs3)[C@@H]3COC[C@@H]32)nc1	-7.21%
CCc1cccc(N2CCC(NC(=O)CCNC(N)=O)CC2)c1	-6.16%
CO[C@@H]1CCN(Cc2c(C)noc2C)[C@@H]2CN(Cc3cccnc3)C[C@@H]21	-5.86%
Cn1ccc(C(=O)N2CCC3(CCC(=O)N(C4CCCC4)C3)CC2)n1	12.2%
NCC1Cc2cc(Cl)cc(-c3cncc(C(=O)N4CCCCC4)n3)c2O1 (stereo not drawn)	-6.78%
COc1ccccc1N1CCC(N2CCOCC(CO)C2)CC1 (stereo not drawn)	-6.73%
CCOC(=O)Cn1c(=O)c(OCC)nc2cnccc21	-3.59%
O=C1CC2(CCCC2)C(=O)N1CC(O)COCc1ccccc1F (stereo not drawn)	12.5%
CCS(=O)(=O)c1ncc(CN(C)Cc2ccccc2OC)n1CCOC	-5.74%
COc1ccc(Cl)cc1-n1cnc(CCNC(C)=O)c1	-4.49%
O=C(Cc1ccsc1)NCC1OCCc2cn(CC3CC3)nc21 (stereo not drawn)	-2.21%
CCOC(=O)CCNC(=O)c1cc(Cl)cc2cccnc12	-4.4%
CSCC(CCO)NC(=O)c1cccc(C)c1Cl (stereo not drawn)	-13.9%
COC1CCN(CCNC(=O)NC(C)c2cccc(Cl)c2)CC1 (stereo not drawn)	-0.888%
O=C1N(CCO)CCCC12CCN(Cc1nnc(C3CC3)o1)C2 (stereo not drawn)	0.803%

Compound	cytotoxicity at 70.5 h
CCC(C)N1Cc2c(C(=O)N3CCOCC3)nn(C)c2C1 (stereo not drawn)	-6.15%
CCOCc1ccccc1NC(=O)NC1CCN(C2CCCC2)C1 (stereo not drawn)	-6.21%
CC(=O)c1cn(CCC(=O)N[C@@H](CC(C)C)C(=O)O)c2ccccc12	-7.76%
c1coc(-c2noc(CN3CCc4cncnc4C3)n2)c1	-7.56%
CCNC(=O)c1ccc2c(c1)nc1n2CCN(C(C)C)C1	-9.53%
CNC(=O)C1(C)CN(S(=O)(=O)c2cccc(OC)c2)CCO1 (stereo not drawn)	22.5%
COCC1COCCC12CCN(C(=O)COc1ccccc1C)CC2 (stereo not drawn)	-2.98%
CCn1ccnc1CN1CCC(Oc2ccccc2F)(C(=O)O)CC1	-0.995%
O=S(=O)(N1CCCCC1)N1CCC(Oc2cnccn2)CC1	-2.24%
O=C(c1ccc[nH]1)N1CCOCC2(C1)CN(c1ccccc1)C(=O)CO2 (stereo not drawn)	-9.1%
CCc1oc(C(=O)N2CCCC(c3nnn[nH]3)C2)cc1C (stereo not drawn)	-4.85%
CC(C)C(=O)N1CCCC(Cc2cccnc2)C1 (stereo not drawn)	-0.448%
COCc1nc(C(=O)NS(=O)(=O)c2ccc(F)cc2F)cs1	0.492%
c1cnc(N2CCOC3(CCN(CC4CCCCC4)CC3)C2)nc1	-4.82%
CC(=O)NC(C)C1=CCCN(Cc2ccc(C(=O)O)cc2)C1 (stereo not drawn)	2.27%
CN1C[C@@H](NC(=O)C(C)(C)C)C[C@H]1C(=O)NCc1ncc[nH]1	-8.54%
CC(C)n1cnnc1CN(C)CC1CCOC1 (stereo not drawn)	-11.8%
Cc1ccccc1OCCCC(=O)NCC1CN(C)CCO1 (stereo not drawn)	-1.6%
O=C(O)CCn1ccc2c(nnc3c(-c4ccc(F)cc4)cnn32)c1=O	-24.9%
Nc1nnc(CCCn2nnc(-c3ccccc3F)n2)s1	-15.5%
CC(=O)N(CCC(=O)NC1(C#N)CCC1)Cc1ccccc1	21.1%
CCc1ncc(C(=O)N(CC)CCOC)cn1	-1.19%
Cc1nc(N2CCN(c3ccccc3)CC2)c2c(n1)c(C)nn2C	-2.17%

Compound	cytotoxicity at 70.5 h
COc1cc2c(cc1OC)S(=O)(=O)N(Cc1cccc(C)c1)C2=O	-11.2%
CC(C)C(NCc1ccc(Cn2cncn2)cc1)c1ccccc1 (stereo not drawn)	-3.88%
COC(=O)c1ccc(NC(C)c2ccc3c(c2)CCC(=O)N3)nn1 (stereo not drawn)	-8.66%
COc1ccc2c(c1)OCC(CNC(=O)c1cc[nH]c1C)C2 (stereo not drawn)	-19.4%
CCc1nc(C2CCCN2C(=O)c2cc[nH]n2)no1 (stereo not drawn)	3.06%
CCN(CC)C(=O)c1ccc(COc2ccccc2C#N)o1	-9.63%
Cc1ccccc1OCC(=O)NCC(c1ccc(N(C)C)cc1)N(C)C (stereo not drawn)	29.2%
Cc1cc(F)c(S(=O)(=O)Nc2ccn(CCC#N)n2)cc1F	-16.3%
Cc1nn(C)c(C)c1C1CCCN1C(=O)CCNc1ncccn1 (stereo not drawn)	-4.27%
COCC(C)(O)CNC(=O)Nc1cccc(OC)c1OC (stereo not drawn)	-11%
Cc1nc(CN2CCOC(CNc3cccnn3)C2)oc1C (stereo not drawn)	30.3%
Cc1ccc(C)c(-n2cc(CN3CC[C@@H](O)C3)c(-c3ccccc3)n2)c1	-0.782%
Cc1cc2c(=O)n3c(nc2s1)CCN(C(=O)c1nn(C)cc1Cl)CC3	-4.02%
COc1ccccc1CC(NC(=O)N1CCOCC1)C(C)C (stereo not drawn)	17.3%
Cc1cccn2c(CNC(C)CO)cnc12 (stereo not drawn)	40.8%
O=C(NCCCn1nc2ccccn2c1=O)NCCC1CCC1	-3.21%
Cn1ccnc1CN1CCC2(CC1)CC(NC(=O)c1ccccn1)CO2 (stereo not drawn)	8.41%
Cc1nc(CC(=O)N2CCCC2c2nc(C(C)C)no2)cs1 (stereo not drawn)	-6.42%
Cc1ccc(C)c(C(O)Cn2cc(Cl)c(=O)[nH]c2=O)c1 (stereo not drawn)	13.1%
Clc1ccc(OCCN2CCN(CCn3cncn3)CC2)cc1	13.2%
Cn1nccc1C(=O)N1CCC(c2ncc(Cl)cc2S(C)(=O)=O)CC1	18.3%
